These results are taken from US7132446B1, “Isolation of a dimer di-gallate, a potent endothelium-dependent vasorelaxing compound” (University of South Florida, priority 2001, dated 2006).

In assay [1] the test system is phenylephrine-contracted endothelium-intact rat aortic rings. The assay can be described thus: Endothelium-dependent relaxation (EDR) bioassay, endothelium-intact aortic rings. The settings on record: for threshold concentration (for 10% relaxation): intact aortic rings; for EDR activity (relaxation of endothelium-intact rings): phenylephrine-contracted endothelium-intact rings. The format is cell-based. The procedure: Aortic ring preparation and bioassay. The procedure for preparation of rat aortic rings and general aspects of determining mechanical activity has been previously described. Briefly, male Sprague-Dawley rats (200–225 g) were euthanized with an overdose of sodium pentobarbital (100 mg/kg, i.p.), bled, and the thoracic aorta excised, cleaned, and rings (3–4 mm in length) were cut, taking care not to disturb the endothelium. In some instances the endothelium was deliberately removed by gently rubbing the lumen with a curved forceps. The rings were suspended in tissue baths containing a physiologic salt solution (PSS) with the following composition (in millimolar): 118 NaCl; 4.7 KCl; 25 NaHCO3; 1.2 MgSO4; 1.2 NaH2PO4; 0.026 EDTA; 1.5 CaCl2; 11 glucose. The solution was bubbled continuously with O2/CO2 (95%/5%), and maintained at 37° C. Activity was recorded on a Grass polygraph. After equilibration for at least 1 hr under 1.5 g of tension, tissues were contracted submaximally (approximately 80% of Emax) with phenylephrine (˜1 μM), and then 3 μM acetylcholine, a known EDR-active compound, was added to the bath to test for intactness of the endothelium. Rings were washed with PSS three times over the next 45 min. prior to the next sequence. EDR activity of HPLC peaks was determined by first contracting aortic rings with phenylephrine, as above, then generating concentration-response curves for relaxation by adding each peak sample to the bath, beginning with a sub-threshold concentration and adding increasing amounts until maximum relaxation is achieved. To test for endothelium-dependence, denuded aortic rings were used. Successful endothelium removal was established by a lack of relaxation response to 3 μM acetylcholine. […] Statistical methods. Data are presented as means±SEM. EC50s were determined from concentration-response curves, utilizing nonlinear regression analysis software (GraphPad Prizm, San Diego, Calif.).

Assay [2] concerns endothelium-denuded rat aortic rings. The assay can be described thus: Relaxation bioassay, endothelium-denuded aortic rings. The format is cell-based. The settings on record: de-endothelialized rings. How it is done: Aortic ring preparation and bioassay. The procedure for preparation of rat aortic rings and general aspects of determining mechanical activity has been previously described. Briefly, male Sprague-Dawley rats (200–225 g) were euthanized with an overdose of sodium pentobarbital (100 mg/kg, i.p.), bled, and the thoracic aorta excised, cleaned, and rings (3–4 mm in length) were cut, taking care not to disturb the endothelium. In some instances the endothelium was deliberately removed by gently rubbing the lumen with a curved forceps. The rings were suspended in tissue baths containing a physiologic salt solution (PSS) with the following composition (in millimolar): 118 NaCl; 4.7 KCl; 25 NaHCO3; 1.2 MgSO4; 1.2 NaH2PO4; 0.026 EDTA; 1.5 CaCl2; 11 glucose. The solution was bubbled continuously with O2/CO2 (95%/5%), and maintained at 37° C. Activity was recorded on a Grass polygraph. […] EDR activity of HPLC peaks was determined by first contracting aortic rings with phenylephrine, as above, then generating concentration-response curves for relaxation by adding each peak sample to the bath, beginning with a sub-threshold concentration and adding increasing amounts until maximum relaxation is achieved. […]

In another assay the test system is blood vessels in vitro. The settings on record: background statements; cited from earlier work.

The term EC50 denotes the concentration that produces a half-maximal response. For `O=C(O[C@@H]1[C@@H](c2c(O)cc(O)c3c2O[C@H](c2ccc(O)c(O)c2)[C@H](OC(=O)c2cc(O)c(O)c(O)c2)C3)c2c(O)cc(O)cc2O[C@@H]1c1ccc(O)c(O)c1)c1cc(O)c(O)c(O)c1` (single isomer, unassigned; peak f2) [peak F2, epicatechin-galloyl-epicatechin-gallate], the results for the “threshold concentration (for 10% relaxation)” value in assay [1] and in assay [1] (molar value printed in brackets) were “approximately 0.35 μg/ml” and about 0.4 µM, respectively. Also, the results for the “EDR activity (relaxation of endothelium-intact rings)” value in assay [1] and in assay [1] (listed as dimer digallate) were “relaxed” and “substantial EDR activity”, respectively. This molecule also displayed an EC50 in assay [1] (phenylephrine-contracted intact rings) of 760 nM. Moreover, in assay [1] (phenylephrine-contracted intact rings, mean±SEM, n=4 rats (3–6 concentration-response curves/rat aorta)), the “EC50 for relaxation of intact aortic rings” value was 0.67 ± 0.04 µg/mL. The “relaxing activity on endothelium-denuded rings” value in assay [2] is listed as “no effect”.
As to `N=C(N)NCCC[C@H](N)C(=O)O` [L-arginine, reference compound], in assay [1] (added to the bath after peak F2, L-arginine added after NNA), the “effect on the B2-di-gallate-induced relaxation of intact rings” value is on record as “caused the tissue to relax once again”.
Regarding `Oc1cc(O)c2c(c1)OC(c1ccc(O)c(O)c1)C(O)C2O` (stereo not drawn) [leucocyanidol], the “EDR activity (previous studies)” value in the assay on blood vessels in vitro is listed as “some activity at lower concentrations”.
